Laboratory results taken from patent US20050239784A1 (priority 2002, published 2005).
pIC50: −log10 of the molar value. Where two headings read alike, the source gives them in different places.

How the values were obtained:
[1] = target: CDK4 (Homo sapiens, UniProt P11802); experiment: biochemical; conditions: for IC50: read-out: CDK4 SPA (Ex. C.1): pIC50 values (converted)
[2] = target: T1, AKT3 (Homo sapiens, UniProt Q9Y243); experiment: biochemical; conditions: for IC50: read-out: AKT3 pep. (Ex. C.3): pIC50 values (converted)
Target sequence in this assay (Q9Y243 whole entry, species assumed): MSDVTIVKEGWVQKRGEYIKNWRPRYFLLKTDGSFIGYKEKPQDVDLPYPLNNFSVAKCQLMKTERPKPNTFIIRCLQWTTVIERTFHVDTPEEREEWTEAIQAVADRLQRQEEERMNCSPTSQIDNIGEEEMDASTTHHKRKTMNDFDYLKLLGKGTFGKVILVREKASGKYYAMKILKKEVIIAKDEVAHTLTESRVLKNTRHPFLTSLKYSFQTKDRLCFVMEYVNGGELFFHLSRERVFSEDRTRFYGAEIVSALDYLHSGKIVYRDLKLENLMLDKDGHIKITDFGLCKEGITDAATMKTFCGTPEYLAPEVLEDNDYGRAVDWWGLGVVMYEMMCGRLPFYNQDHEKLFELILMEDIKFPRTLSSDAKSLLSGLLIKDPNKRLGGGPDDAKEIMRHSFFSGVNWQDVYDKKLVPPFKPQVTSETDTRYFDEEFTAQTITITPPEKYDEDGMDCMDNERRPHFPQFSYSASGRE

[3] = target: T1, AKT3; experiment: cell-based; conditions: for IC50: read-out: AKT cel (Ex. C.6): pIC50 values (converted)
Target sequence in this assay (Q9Y243 whole entry): as the sequence (Q9Y243 whole entry, species assumed) above

[4] = test system: A2780 cells; experiment: Cytotox survival of A2780 cells after 3 days; format: cell-based; conditions: for IC50: Homo sapiens, A2780, 72 h
Description: In an alternative assay, the growth inhibitory effect of the compounds was tested on the ovarian carcinoma cell line A2780 using art known cytotoxicity assays such as LIVE/DEAD (Molecular Probes) MTT.

[5] = target: T2, CDC25B (Homo sapiens, UniProt P30305); experiment: biochemical; conditions: for IC50: read-out: CDC25B WT (Ex. C.5): pIC50 values (converted)
T2 sequence (P30305 1-580): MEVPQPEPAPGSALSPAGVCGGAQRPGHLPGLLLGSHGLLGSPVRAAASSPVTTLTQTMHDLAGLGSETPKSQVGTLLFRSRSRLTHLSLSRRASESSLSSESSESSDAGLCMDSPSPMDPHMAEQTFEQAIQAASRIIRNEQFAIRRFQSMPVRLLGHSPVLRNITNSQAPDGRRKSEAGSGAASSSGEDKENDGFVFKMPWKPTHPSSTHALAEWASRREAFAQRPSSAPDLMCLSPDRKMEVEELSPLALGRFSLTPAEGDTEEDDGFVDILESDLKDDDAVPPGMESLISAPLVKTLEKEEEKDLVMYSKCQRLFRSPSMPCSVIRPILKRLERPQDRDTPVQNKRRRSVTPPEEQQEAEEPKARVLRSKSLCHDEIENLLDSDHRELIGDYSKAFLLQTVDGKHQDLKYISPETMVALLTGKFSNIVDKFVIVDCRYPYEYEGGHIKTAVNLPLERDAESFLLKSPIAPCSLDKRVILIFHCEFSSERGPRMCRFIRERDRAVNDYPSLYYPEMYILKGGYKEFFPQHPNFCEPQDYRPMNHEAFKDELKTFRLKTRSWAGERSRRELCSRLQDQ

[6] = physchem; conditions: pH 7.4, aqueous buffer, kinetic from dmso stock
[7] = read-out: Cytotox survival of A2780 cells after 3 days - pIC50 values, A2780 cells, 3 days (converted)

CDK4, sequence (P11802 whole entry, species assumed): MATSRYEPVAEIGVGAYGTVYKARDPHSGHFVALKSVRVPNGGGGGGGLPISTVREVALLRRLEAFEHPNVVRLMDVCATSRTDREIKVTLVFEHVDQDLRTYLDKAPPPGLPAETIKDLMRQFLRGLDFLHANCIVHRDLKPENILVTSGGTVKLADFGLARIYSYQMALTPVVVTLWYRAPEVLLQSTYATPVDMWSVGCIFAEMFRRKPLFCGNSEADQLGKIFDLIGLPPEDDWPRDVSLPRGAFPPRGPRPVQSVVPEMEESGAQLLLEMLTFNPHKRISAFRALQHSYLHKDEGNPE
CDK4, sequence (P24385 whole entry partner, species assumed): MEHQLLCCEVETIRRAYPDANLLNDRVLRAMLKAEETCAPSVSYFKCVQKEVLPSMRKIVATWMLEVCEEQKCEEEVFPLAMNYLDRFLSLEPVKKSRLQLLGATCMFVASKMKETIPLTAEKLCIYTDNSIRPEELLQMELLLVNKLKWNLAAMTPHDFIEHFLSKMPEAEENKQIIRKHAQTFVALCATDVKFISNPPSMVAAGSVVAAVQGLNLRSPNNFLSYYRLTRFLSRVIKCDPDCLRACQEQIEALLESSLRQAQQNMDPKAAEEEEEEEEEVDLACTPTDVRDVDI

| SMILES | melting point | IC50 [1] | IC50 [2] | IC50 [3] | IC50 [5] | solubility [6] | other results |
| --- | --- | --- | --- | --- | --- | --- | --- |
| COc1cc(-c2nc3c(=O)n(C)c(=O)nc-3n(C)n2)ccc1OCCN1CCN(C)CC1 | 239 °C |  |  |  |  |  |  |
| COc1cc(-c2nc3c(=O)n(C)c(=O)nc-3n(C(C)C)n2)ccc1OCCN1CCN(C)CC1 | 233 °C |  |  |  |  |  |  |
| Cn1nc(-c2ccccc2)nc2c(=O)n(C3CCN(C(=O)OC(C)(C)C)CC3)c(=O)nc1-2 | > 250 °C |  |  |  |  |  |  |
| CCCC(C)n1nc(-c2ccccc2)nc2c(=O)n(C)c(=O)nc1-2 (stereo not shown) | 216 °C |  |  |  |  |  |  |
| CCOC(=O)C(C)n1nc(-c2ccccc2)nc2c(=O)n(C)c(=O)nc1-2 (stereo not shown) | 215 °C |  |  |  |  |  |  |
| Cn1c(=O)nc2n(C3CCN(C(=O)OC(C)(C)C)CC3)nc(-c3ccccc3)nc-2c1=O | 250 °C |  |  |  |  |  |  |
| Cn1c(=O)nc2n(C3CCNCC3)nc(-c3ccccc3)nc-2c1=O | > 250 °C |  |  |  |  |  |  |
| COc1cc(-c2nc3c(=O)n(C)c(=O)nc-3n(C3CCCC3)n2)cc(OC)c1OCCN1CCOCC1 | 187.5 to 209 °C |  |  |  |  |  |  |
| COc1cc(-c2nc3c(=O)n(C)c(=O)nc-3n(C(C)C)n2)ccc1OCCN1CCCCC1 | 222 °C |  |  |  |  |  |  |
| CC(C)n1nc(-c2ccc(OCCN3CCOCC3)cc2)nc2c(=O)n(C)c(=O)nc1-2 | 232 °C |  |  |  |  |  |  |
| CC(C)n1nc(-c2ccc(OCCN3CCNCC3)c(Cl)c2)nc2c(=O)n(C)c(=O)nc1-2 [Compound 104] |  | 128 nM | 121 nM | 726 nM | 30.2 nM | > 1800 µM | IC50 [4, 7]: 214 nM |
| COc1cc(-c2nc3c(=O)n(C)c(=O)nc-3n(C(C)C)n2)cc(OC)c1OCCN(C)C1CCNCC1 [Compound 105] |  | 153 nM | 138 nM | > 3020 nM | 35.6 nM | > 1800 µM | IC50 [4, 7]: < 3010 nM |
| COc1cc(-c2nc3c(=O)n(C)c(=O)nc-3n(C(C)C)n2)cc(OC)c1OCCN1CCCCC1 [Compound 106] |  | 142 nM | 117 nM | > 3020 nM | 33.3 nM | > 1800 µM | Cytotox survival of A2780 cells after 3 days - pIC50 values ([4]; A2780 cells, 3 days): 6.074 |
| CC(C)n1nc(-c2ccc(CN(C)CCO)cc2)nc2c(=O)n(C)c(=O)nc1-2 [Compound 111] |  |  |  |  |  | > 1800 µM | pIC50 ([1]; CDK4 SPA (Ex. C.1): pIC50 values): 6.90; pIC50 ([2]; AKT3 pep. (Ex. C.3): pIC50 values): 6.79; pIC50 ([3]; AKT cel (Ex. C.6): pIC50 values, MDA-MB 231 cells, phosphorylated MAPK read-out): 6.10; IC50 ([4]; A2780 cells, 3 days, read-out: Cytotox survival of A2780 cells after 3 days - pIC50 values (converted)): 157 nM; pIC50 ([5]; CDC25B WT (Ex. C.5): pIC50 values): 7.51 |
| CC(C)n1nc(-c2ccc(CN(C)C3CCN(S(=O)(=O)N(C)C)CC3)cc2)nc2c(=O)n(C)c(=O)nc1-2 [Compound 113] |  | 151 nM | 184 nM | > 3020 nM | 119 nM | > 1800 µM | IC50 [4, 7]: 220 nM |
| Cn1c(=O)nc2n(C3CCCC3)nc(-c3ccc(CN4CCNCC4)cc3)nc-2c1=O [Compound 153] |  | 369 nM | 335 nM | 495 nM | 46 nM | > 1800 µM | IC50 [4, 7]: 181 nM |
